Biological target: Hma (MmaA4) (Mycobacterium tuberculosis, UniProt Q79FX8)
Sequence (Q79FX8 4-301): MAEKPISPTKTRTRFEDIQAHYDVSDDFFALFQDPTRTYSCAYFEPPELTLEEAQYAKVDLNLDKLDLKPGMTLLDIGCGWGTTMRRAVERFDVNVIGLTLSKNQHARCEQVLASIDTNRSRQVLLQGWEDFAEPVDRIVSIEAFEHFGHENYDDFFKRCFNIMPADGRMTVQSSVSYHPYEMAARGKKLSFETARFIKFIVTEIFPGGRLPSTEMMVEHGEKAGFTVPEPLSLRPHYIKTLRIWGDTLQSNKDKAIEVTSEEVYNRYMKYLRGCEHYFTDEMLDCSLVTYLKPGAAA

`O=Cc1ccc2cccc(O)c2n1` [ZT726] was tested, and the “X-ray crystallography, fragment soak, PanDDA” value was “A second molecule of the ZT260 and ZT320 fragments is located at this position, as well as ZT726”.

From PMC8708032, “Fragment-Based Ligand Discovery Applied to the Mycolic Acid Methyltransferase Hma (MmaA4) from Mycobacterium tuberculosis: A Crystallographic and Molecular Modelling Study” (Pharmaceuticals, 2021)
